Data published in patent US11896589B2, “Diazinyl amino acridines and medical uses thereof” (MyCural Therapeutics AB, priority 2018, dated 2024).
Like-named read-outs stand apart in the source and are kept apart here.

Assays:
[1] = biological target: T1, endogenous MYC:MAX in MDA-MB231 cells (Homo sapiens, UniProt P01106); experiment: Assay 3B CoIP of endogenous MAX with MYC; format: cell-based
T1 construct: endogenous in cells; host or cells: MDA-MB231
Experimental: (§1) FIG. 4: A) Endogenous MYC:MAX (upper panel) and FRA1:JUN (lower panel) interactions as visualized as fluorescent red dots by isPLA. Nuclei were counterstained with DAPI (blue). Cells were treated with 10 μM of indicated compounds for 16 hours and subjected to isPLA using pairs of MYC and MAX and of FRA1 and JUN antibodies, respectively. As negative control, primary antibody pairs but only one oligo-conjugated secondary antibody was used. B) Quantification of MYC:MAX and C) FRA1:JUN isPLA, representing an average number of nuclear dots per cell from three microscopic fields normalized to corresponding values for DMSO-treated cells. […] 1st-4th lanes from top; coimmunoprecipitated MAX, immunoprecipitated MYC, total levels of MAX and ACTIN, respectively, as determined by western blot analysis. E) MYC:MAX GLuc assay in cells. […] 24 hours later cells were treated with […] of Example 1, Example 2 and control compound for 16 hours and thereafter analyzed in a dual luciferase assay. The ratio of Gaussia/Firefly luciferase luminescence were calculated and normalized to DMSO-treated cells.
Coimmunoprecipitation of endogenous MYC:MAX proteins were essentially carried out as in Bahram, F. et al. Interferon-gamma-induced p27KIP1 binds to and targets MYC for proteasome-mediated degradation. Oncotarget 7, 2837-2854, doi:10.18632/oncotarget.6693 (2016). […]

[2] = biological target: T2, MYCbHLHZip (Homo sapiens, UniProt P01106); experiment: Assay 2B MYC SPR assay; format: binding
T2 construct: An amino coupling procedure was used to immobilize MYCbHLHZip protein on a CM5 sensor chip
T2 sequence (P01106 368-449 limits assumed): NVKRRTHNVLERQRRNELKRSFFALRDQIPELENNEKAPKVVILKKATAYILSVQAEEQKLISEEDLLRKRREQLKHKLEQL
Experimental: FIG. 3: A) SPR assay to determine affinity of Example 1 to MYC. MYC bHLHZip protein was immobilized by aminocoupling on a CM5 sensor chip. Example 1 was injected at various concentrations in a kinetic experiment. The reference surface was subtracted from the analyte surface to generate a sensorgram. […] B) Four MYC equilibrium binding experiments with Example 1 summarized in an equilibrium binding plot. […] Equilibrium binding experiments of MYC with Example 2 and control compound (non-binder) were plotted as well. Assay 2B. MYC SPR Assay To analyze the direct binding of compounds to MYC, the direct binding of compounds to MYC was detected by surface plasmon resonance (SPR) as described above (Biological example 1—Assay 1B). An amino coupling procedure was used to immobilize MYCbHLHZip protein on a CM5 sensor chip (GE Healthcare) resulting in immobilization levels of approximately 800 respectively 1000 RU. The compounds were injected at different concentrations, one at a time, over the surface for 50-80 seconds with a flow rate of 30 μl/min. Afterwards the compounds were allowed to dissociate for 240 seconds in running buffer (137 mM NaCl, 2.7 mM KCl, 10 mM Na2HPO4, 1.8 mM KH2PO4, 0.005% Tween-20, 1% DMSO, pH 7.4). To remove all remaining analyte the surface was regenerated with 2M Urea for 30 seconds and thereafter 1M NaCl, 2.7 mM KCl, 10 mM Na2HPO4, 1.8 mM KH2PO4, 1% DMSO, pH 7.4 for 30 seconds. Sensorgrams were generated by subtraction of the reference (blank immobilized) surface. Binding responses were related to respective compounds' Rmax. Rmax is the maximum response of a compound when it binds with a 1:1 stochiometry to the protein; Rmax=(MW analyte/MW ligand)×immobilized ligand level on the chip (RU) x stoichiometry (1:1). Kinetic experiments were carried out where recombinant MYC bHLHZip was immobilized on the chip and different concentrations of Example 1 were injected as above. […] Example 2-6 were analyzed for their MYC binding properties by equilibrium binding experiments as described for example 1.

[3] = biological target: T3, FRA1:JUN interaction in MDA-MB231 cells (Homo sapiens, UniProt P05412+P15407); experiment: Assay 3A isPLA assay, FRA1:JUN; format: cell-based; conditions: 10 μM
T3 construct: endogenous in cells; host or cells: MDA-MB231
T3 sequence (P15407 whole entry): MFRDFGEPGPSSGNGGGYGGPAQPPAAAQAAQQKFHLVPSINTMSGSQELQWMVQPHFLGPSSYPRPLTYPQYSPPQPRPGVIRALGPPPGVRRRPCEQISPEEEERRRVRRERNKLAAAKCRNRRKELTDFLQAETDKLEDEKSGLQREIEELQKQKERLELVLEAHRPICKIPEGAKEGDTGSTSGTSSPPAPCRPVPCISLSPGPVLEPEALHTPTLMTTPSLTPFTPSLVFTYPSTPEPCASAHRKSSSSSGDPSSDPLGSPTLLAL
T3 sequence (P05412 whole entry): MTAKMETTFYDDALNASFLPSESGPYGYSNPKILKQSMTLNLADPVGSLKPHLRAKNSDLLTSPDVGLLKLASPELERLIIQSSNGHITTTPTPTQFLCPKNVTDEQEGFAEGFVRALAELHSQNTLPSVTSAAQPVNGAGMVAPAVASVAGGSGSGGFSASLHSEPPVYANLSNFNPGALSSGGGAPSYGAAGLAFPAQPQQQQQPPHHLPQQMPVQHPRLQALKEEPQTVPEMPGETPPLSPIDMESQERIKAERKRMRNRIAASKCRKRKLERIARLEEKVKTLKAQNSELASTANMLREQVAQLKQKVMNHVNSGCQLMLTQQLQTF
Experimental: as §1
Identification of endogenous protein-protein interactions in fixed cells and has been described (Soderberg, O. et al., Nat Methods, 3, 995-1000 (2006)). […] Endogenous MYC:MAX or FRA-1:JUN protein interactions were visualized by fluorescence microscopy as fluorescent dots mainly localized in the cell nucleus. […]

T1 sequence (P01106 whole entry): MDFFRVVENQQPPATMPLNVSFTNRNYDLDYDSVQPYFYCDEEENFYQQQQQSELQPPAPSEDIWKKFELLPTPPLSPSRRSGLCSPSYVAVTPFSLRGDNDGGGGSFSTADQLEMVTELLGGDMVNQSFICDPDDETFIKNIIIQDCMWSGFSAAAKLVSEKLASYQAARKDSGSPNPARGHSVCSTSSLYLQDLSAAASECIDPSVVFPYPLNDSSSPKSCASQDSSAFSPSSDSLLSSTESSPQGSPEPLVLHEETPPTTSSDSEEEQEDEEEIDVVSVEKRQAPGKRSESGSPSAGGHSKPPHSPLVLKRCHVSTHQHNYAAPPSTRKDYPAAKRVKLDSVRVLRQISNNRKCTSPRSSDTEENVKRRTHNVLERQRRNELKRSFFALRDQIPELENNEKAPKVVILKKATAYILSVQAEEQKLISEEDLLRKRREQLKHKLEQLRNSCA

reduction of MYC:MAX protein interaction vs DMSO treated cells (CoIP) ([1]; 5 μM, 3.5 hours): More than Half
inhibition at 5 µM ([1]; MDA-MB-231, read-out: CoIP inhibition at 10 μM): > 70%
Kd ([2]; 1:1 Langmuir model, read-out: KD (average of four kinetic experiments)): 1600 ± 500 nM
Kd ([2]; Langmuir 1:1, constant Rmax 43 RU, read-out: KD (one representative kinetic experiment)): 2500 nM
Binding relative to Rmax ([2]; equilibrium binding experiments): 1.6 Response Units
kon ([2]; representative kinetic experiment, read-out: association rate ka): 9290 M⁻¹ s⁻¹
koff ([2]; representative kinetic experiment, read-out: dissociation rate kd): 0.0229 s⁻¹
effect on FRA1:JUN interaction (isPLA) [3]: not affecting
SMILES: CCOc1ccc2nc3cc(/N=N/c4ccc(N)nc4N)ccc3c(N)c2c1 [Example 1, 3-((9-amino-7-ethoxyacridin-3-yl)diazenyl)pyridine-2,6-diamine sulphate hydrate]
